Reference: PubChem BioAssay AID248 (DTP/NCI, 2004)
Inconclusive results and toxic doses are left out. Cut-off read from the data, not from the text of the source: active = T/C of 150% or more; inactive = T/C below 125%.

Test system: L1210 leukemia ip in BDF1 mice, survival T/C
Assay: NCI In Vivo Anticancer Drug Screen. Data for tumor model L1210 Leukemia (intraperitoneal) in B6D2F1 (BDF1) mice
Details: endpoint: mean survival time, higher = longer survival
Summary of the method: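 Tumor was transplanted into mice, which were then dosed with test compound or vehicle alone. Survival was recorded for each group, and the treated figure was expressed relative to the control figure.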

[1] = dose: 100.0 mg/kg/injection, schedule: Q04DX002 (ip), vehicle: saline
[2] = dose: 200.0 mg/kg/injection, schedule: Q04DX002 (ip), vehicle: saline
[3] = dose: 400.0 mg/kg/injection, schedule: Q04DX002 (ip), vehicle: saline
[4] = dose: 100.0 mg/kg/injection, schedule: Q01DX009 (ip), vehicle: Klucel (hydroxypropylcellulose) (HPC)
[5] = dose: 100.0 mg/kg/injection, schedule: Q01DX009 (ip), vehicle: saline with Tween-80
[6] = dose: 100.0 mg/kg/injection, schedule: Q04DX003 (ip), vehicle: Klucel (hydroxypropylcellulose) (HPC)
[7] = dose: 200.0 mg/kg/injection, schedule: Q01DX009 (ip), vehicle: saline with Tween-80
[8] = dose: 200.0 mg/kg/injection, schedule: Q04DX003 (ip), vehicle: Klucel (hydroxypropylcellulose) (HPC)
[9] = dose: 400.0 mg/kg/injection, schedule: Q01DX009 (ip), vehicle: saline with Tween-80
[10] = dose: 100.0 mg/kg/injection, schedule: Q04DX002 (ip), vehicle: Klucel (hydroxypropylcellulose) (HPC)
[11] = dose: 200.0 mg/kg/injection, schedule: Q04DX002 (ip), vehicle: Klucel (hydroxypropylcellulose) (HPC)
[12] = dose: 400.0 mg/kg/injection, schedule: Q04DX002 (ip), vehicle: Klucel (hydroxypropylcellulose) (HPC)
[13] = dose: 100.0 mg/kg/injection, schedule: Q01DX001 (ip), vehicle: carboxymethylcellulose (CMC)
[14] = dose: 200.0 mg/kg/injection, schedule: Q01DX001 (ip), vehicle: carboxymethylcellulose (CMC)
[15] = dose: 400.0 mg/kg/injection, schedule: Q01DX001 (ip), vehicle: carboxymethylcellulose (CMC)
[16] = dose: 400.0 mg/kg/injection, schedule: Q01DX009 (ip), vehicle: Klucel (hydroxypropylcellulose) (HPC)
[17] = dose: 400.0 mg/kg/injection, schedule: Q04DX003 (ip), vehicle: Klucel (hydroxypropylcellulose) (HPC)
[18] = dose: 200.0 mg/kg/injection, schedule: Q01DX009 (ip), vehicle: Klucel (hydroxypropylcellulose) (HPC)
[19] = dose: 100.0 mg/kg/injection, schedule: Q04DX003 (ip), vehicle: saline
[20] = dose: 200.0 mg/kg/injection, schedule: Q04DX003 (ip), vehicle: saline
[21] = dose: 400.0 mg/kg/injection, schedule: Q04DX003 (ip), vehicle: saline
[22] = dose: 100.0 mg/kg/injection, schedule: Q04DX003 (ip), vehicle: saline with Tween-80
[23] = dose: 200.0 mg/kg/injection, schedule: Q04DX003 (ip), vehicle: saline with Tween-80
[24] = dose: 400.0 mg/kg/injection, schedule: Q04DX003 (ip), vehicle: saline with Tween-80

Measured: T/C

Nc1nc(-c2cccnc2)nc2c1cnn2-c1ccccc1
inactive: dose: 100.0 mg/kg/injection, schedule: Q01DX001 (ip), vehicle: other 100 % of control | dose: 100.0 mg/kg/injection, schedule: Q04DX003 (ip), vehicle: other 97 % of control | dose: 200.0 mg/kg/injection, schedule: Q01DX001 (ip), vehicle: other 95 % of control | dose: 200.0 mg/kg/injection, schedule: Q04DX003 (ip), vehicle: other 104 % of control | dose: 400.0 mg/kg/injection, schedule: Q01DX001 (ip), vehicle: other 94 % of control | dose: 400.0 mg/kg/injection, schedule: Q04DX003 (ip), vehicle: other 109 % of control

Cc1ccc(Cl)c(I)c1
inactive: [1] 103 % of control | [2] 103 % of control | [3] 95 % of control

COc1ccc(Cl)cc1N
inactive: [4] 86 % of control | [5] 100 % of control | [6] 93 % of control | [7] 94 % of control | [8] 92 % of control | [9] 104 % of control

S=c1[nH]c2ccccc2n1CCc1ccncc1
inactive: dose: 100.0 mg/kg/injection, schedule: Q01DX001 (ip), vehicle: saline 100 % of control | dose: 200.0 mg/kg/injection, schedule: Q01DX001 (ip), vehicle: saline 97 % of control | dose: 400.0 mg/kg/injection, schedule: Q01DX001 (ip), vehicle: saline 95 % of control

O=C(Cl)C(=O)c1c[nH]c2ccccc12
inactive: [10] 101 % of control | [11] 101 % of control | [12] 95 % of control

O=C1NC(=O)C2C3C(C(O)(c4ccccc4)c4ccccn4)=CC(/C3=C(\c3ccccc3)c3ccccn3)C12 (stereo not drawn)
inactive: dose: 0.5 mg/kg/injection, schedule: Q01DX010 (ip), vehicle: saline 101 % of control | dose: 1.0 mg/kg/injection, schedule: Q01DX010 (ip), vehicle: saline 93 % of control | dose: 2.0 mg/kg/injection, schedule: Q01DX010 (ip), vehicle: saline 101 % of control | dose: 2.0 mg/kg/injection, schedule: Q01DX010 (oral), vehicle: saline 96 % of control | dose: 4.0 mg/kg/injection, schedule: Q01DX010 (ip), vehicle: saline 93 % of control | dose: 4.0 mg/kg/injection, schedule: Q01DX010 (oral), vehicle: saline 96 % of control | dose: 8.0 mg/kg/injection, schedule: Q01DX010 (oral), vehicle: saline 96 % of control | dose: 16.0 mg/kg/injection, schedule: Q01DX010 (oral), vehicle: saline 96 % of control | [13] 98 % of control | [14] 102 % of control | [15] 104 % of control

CCCCOC(=O)CC(=O)OCCCC
inactive: [4] 96 % of control | [6] 88 % of control | [8] 95 % of control | [16] 86 % of control | [17] 97 % of control

CCC(C)N1OC1c1ccccc1 (stereo not drawn)
inactive: [13] 106 % of control | [14] 103 % of control | [15] 101 % of control

CN=C(N)C(C)Cl (stereo not drawn)
inactive: [1] 106 % of control | [2] 103 % of control | [3] 103 % of control

CC(=O)Nc1ccc(Cl)cc1C(=O)O
inactive: [4] 97 % of control | [6] 97 % of control | [18] 90 % of control | [8] 94 % of control | [16] 93 % of control | [17] 102 % of control

O=S(=O)(O)c1ccc(O)cc1
inactive: dose: 50.0 mg/kg/injection, schedule: Q04DX003 (ip), vehicle: Klucel (hydroxypropylcellulose) (HPC) 98 % of control | dose: 100.0 mg/kg/injection, schedule: Q01DX009 (ip), vehicle: saline 110 % of control | [6] 104 % of control | [19] 114 % of control | dose: 200.0 mg/kg/injection, schedule: Q01DX009 (ip), vehicle: saline 107 % of control | [8] 124 % of control | [20] 97 % of control | dose: 400.0 mg/kg/injection, schedule: Q01DX009 (ip), vehicle: saline 101 % of control | [21] 101 % of control

CCOC(=O)C1(C)OC1c1ccc2c(c1)OCO2 (stereo not drawn)
inactive: [5] 106 % of control | [7] 95 % of control | [9] 103 % of control

CCOC(=O)C(C#N)C(C)CC(C)C (stereo not drawn)
inactive: dose: 50.0 mg/kg/injection, schedule: Q01DX001 (ip), vehicle: saline with Tween-80 102 % of control | dose: 100.0 mg/kg/injection, schedule: Q01DX001 (ip), vehicle: saline with Tween-80 102 % of control | dose: 200.0 mg/kg/injection, schedule: Q01DX001 (ip), vehicle: saline with Tween-80 93 % of control

Cc1cc(N(CCCOS(C)(=O)=O)CCCOS(C)(=O)=O)ccc1C=Nc1ccc(-c2csc(COc3ccc(Cl)cc3Cl)n2)cc1
inactive: [5] 91 % of control | [7] 96 % of control | [9] 94 % of control

Nc1cccc2c1C(=O)c1c(c(O)c3ccccc3c1O)C2=O
inactive: [6] 100 % of control | [8] 96 % of control | [17] 96 % of control

CC(=O)c1cc2cc(Cl)cc(Cl)c2oc1=O
inactive: [5] 94 % of control | dose: 100.0 mg/kg/injection, schedule: Q04DX002 (ip), vehicle: saline with Tween-80 95 % of control | [7] 91 % of control | dose: 200.0 mg/kg/injection, schedule: Q04DX002 (ip), vehicle: saline with Tween-80 100 % of control | dose: 400.0 mg/kg/injection, schedule: Q04DX002 (ip), vehicle: saline with Tween-80 92 % of control

CSP(N)(N)=O
inactive: dose: 5.0 mg/kg/injection, schedule: Q01DX001 (ip), vehicle: saline 97 % of control | dose: 10.0 mg/kg/injection, schedule: Q01DX001 (ip), vehicle: saline 103 % of control

C(=N\n1cnnc1)/c1ccc(/C=N/n2cnnc2)cc1
inactive: [5] 98 % of control | [22] 105 % of control | [7] 88 % of control | [23] 105 % of control | [9] 89 % of control | [24] 98 % of control

OC1(C2CCCCC2)C2CCCC1CCC2 (stereo not drawn)
inactive: dose: 100.0 mg/kg/injection, schedule: Q01DX009 (ip), vehicle: other 94 % of control | [22] 99 % of control | dose: 200.0 mg/kg/injection, schedule: Q01DX009 (ip), vehicle: other 94 % of control | [23] 92 % of control | dose: 400.0 mg/kg/injection, schedule: Q01DX009 (ip), vehicle: other 101 % of control | [24] 103 % of control

CCOC(=O)Oc1ccc(OC)cc1
inactive: [4] 111 % of control | [19] 98 % of control | [18] 96 % of control | [20] 112 % of control | [16] 96 % of control | [21] 124 % of control

CC1(c2ccc(F)cc2)OC(=O)c2c1ccc1ccccc21 (stereo not drawn)
inactive: [10] 101 % of control | [11] 94 % of control | [12] 101 % of control
